{"source": "patent US20210340130A1", "about": "“Compositions and methods for treating attention deficit disorders” (priority 2016, published 2021)", "key": {"[1]": {"system": "cyclothiazide binding site", "conditions": "cited from earlier work"}, "[2]": {"system": "fragile X syndrome patients", "conditions": "cited from earlier work"}, "schizophrenia patients": {"system": "schizophrenia patients", "conditions": "cited from earlier work"}, "hippocampal slices": {"system": "hippocampal slices", "conditions": "cited from earlier work"}, "[3]": {"system": "hippocampal slices (CA1 population spikes)", "experimental": "Slice Seizure Assay In these studies extracellular field potentials recording (Population Spikes) in hippocampal slices were used to determine convulsant activity (potential seizure liability). Transverse 300-400 μm hippocampal slices were taken from adult male Sprague-Dawley rats (4-6 week old) and incubated in a submerge slice recording chamber system for 30 to 60 min. The chamber was perfused with oxygenated artificial cerebral spinal fluid (ACSF) comprising (in mM): NaCl 124, KCl 3.0, KH2PO4 1.25, CaCl2.34, MgSO4 2.5, NaHCO3 26 and glucose 10 at room temperature. Population Spike (PS) recordings were made with glass electrodes filled with 2 M NaCl (1-5 megaohm) places in the region of pyramidal cell body of CA1. Electrical stimuli were produced with twisted bipolar nichrome wire electrodes in the Schaffer-commissural fiber afferents. Population spike was induced by activating Schaffer-commissural fiber using single pulse stimulation with delivered at 0.05 Hz. The maximal amplitude of PS was determined by increase stimulating intensity till second spike appears. Then the intensity was decreased to induce a 50% to 60% of maximal response. The amplitude of PS was measured for each response and plotted against time. At same time the amplitude of second PS and/or number of PS was measured and plotted against time. The size of the second PS and numbers of PS were used to estimate the seizure potential or seizure state. With 20 to 50 min stable baseline established testing compound was perfused for 10 to 20 min at each concentration to observe the effect. […] The perfusion then was switched to control ACSF and continued to record until drug effect was washed back to the baseline. CX717 and CX1739 exemplary test ampakine compounds were prepared by dissolving in DMSO and then added to ACSF.\nThe upper 3 panels of FIG. 5 show amplitudes for PS 1, 2 and 3 m respectively. Lower panel is the measurement of the number of PS."}, "BDNF production": {"system": "BDNF production", "conditions": "16 uM; cited from earlier work"}}, "note": "Entries after “also recorded” stand apart in the source; their conditions may differ.", "data": [{"compound": "O=C(c1ccc2nccnc2c1)N1CCCCC1", "note": "[CX516]", "values": [{"measurement": "binding to the cyclothiazide binding site", "setting": "[1]", "result": "does not bind to the cyclothiazide binding site"}, {"measurement": "memory, language use, attention, executive and overall functioning", "setting": "[2]", "result": "did not exhibit improved memory"}, {"measurement": "cognition tests versus placebo groups", "setting": "schizophrenia patients; add-on to clozapine, olanzapine or risperidone, weeks 4 or 8", "result": "did not significantly differ"}, {"measurement": "adverse side effects", "setting": "schizophrenia patients; four weeks treatment", "result": "fatigue, epigastric discomfort and insomnia"}, {"measurement": "generalized discharges in hippocampal slices", "setting": "hippocampal slices", "result": "do not"}]}, {"compound": "O=C(c1ccc2c(c1)OCCO2)N1CCCCC1", "note": "[CX546]", "values": [{"measurement": "binding to the cyclothiazide binding site", "setting": "[1]", "result": "binds to the cyclothiazide binding site"}, {"measurement": "generalized discharges in hippocampal slices", "setting": "hippocampal slices", "result": "produce generalized discharges"}]}, {"compound": "O=C1c2cc3c(cc2OC2CCCN12)OCCO3", "note": "(stereo not shown) [CX614, reference compound]", "values": [{"measurement": "seizure / convulsant activity", "setting": "[3]; 16 uM", "result": "demonstrated seizure potential activity; also recorded: unacceptable convulsant activity"}, {"measurement": "BDNF production in hippocampal slices", "setting": "BDNF production", "result": "significantly increases BDNF production"}]}, {"compound": "picrotoxin [reference compound]", "values": [{"measurement": "seizure activity (population spikes)", "setting": "[3]; 50 μM perfusion", "result": "induced a seizure like activity at the level of second PS but not third PS"}]}]}
